# Measurements reported in patent publication US12522583B2, “Benzimidazole derivatives and aza-benzimidazole derivatives as Janus kinase 2 inhibitors and uses thereof” (Dana-Farber Cancer Institute, Inc., priority 2018, dated 2026).
# Experiments:
# Assay in all cases: KINOMEscan
# Type in all cases: binding
# Settings in all cases: read-out: percent control
# CAMK2G = CAMK2G (Homo sapiens (Human), UniProt Q13555)
# Excerpt: (§1) Example 2. In Vitro Kinase Selectivity Profiling of the Compounds of the Present Disclosure
# PFCDPK1(P.falciparum) = PFCDPK1(P.falciparum) (Plasmodium falciparum (isolate 3D7), UniProt P62344)
# Excerpt: as §1
# EPHA6 = EPHA6 (Homo sapiens (Human), UniProt Q9UF33)
# Excerpt: as §1
# PCTK3 = PCTK3 (Homo sapiens (Human), UniProt Q07002)
# Excerpt: as §1
# AMPK-alpha2 = AMPK-alpha2 (Homo sapiens (Human), UniProt P54646)
# Excerpt: as §1
# FES = FES (Homo sapiens (Human), UniProt P07332)
# Excerpt: as §1
# CSF1R = CSF1R (Homo sapiens (Human), UniProt P07333)
# Excerpt: as §1
# MST1R = MST1R (Homo sapiens (Human), UniProt Q04912)
# Excerpt: as §1
# DYRK1A = DYRK1A (Homo sapiens (Human), UniProt Q13627)
# Excerpt: as §1
# RET = RET (Homo sapiens (Human), UniProt P07949)
# Excerpt: as §1
# [1] = target: ABL1(M351T)-phosphorylated (Homo sapiens (Human), UniProt P00519, M351T)
# Excerpt: as §1
# ULK2 = ULK2 (Homo sapiens (Human), UniProt Q8IYT8)
# Excerpt: as §1
# EPHB4 = EPHB4 (Homo sapiens (Human), UniProt P54760)
# Excerpt: as §1
# DYRK1B = DYRK1B (Homo sapiens (Human), UniProt Q9Y463)
# Excerpt: as §1
# NIM1 = NIM1 (Homo sapiens (Human), UniProt Q8IY84)
# Excerpt: as §1
# CAMK4 = CAMK4 (Homo sapiens (Human), UniProt Q16566)
# Excerpt: as §1
# BRK = BRK (Homo sapiens (Human), UniProt Q13882)
# Excerpt: as §1
# EPHA4 = EPHA4 (Homo sapiens (Human), UniProt P54764)
# Excerpt: as §1
# FGR = FGR (Homo sapiens (Human), UniProt P09769)
# Excerpt: as §1
# HPK1 = HPK1 (Homo sapiens (Human), UniProt Q92918)
# Excerpt: as §1
# MET(Y1235D) = MET(Y1235D) (Homo sapiens (Human), UniProt P08581, Y1235D)
# Excerpt: as §1
# PCTK1 = PCTK1 (Homo sapiens (Human), UniProt Q00536)
# Excerpt: as §1
# YES = YES (Homo sapiens (Human), UniProt P07947)
# Excerpt: as §1
# VEGFR2 = VEGFR2 (Homo sapiens (Human), UniProt P35968)
# Excerpt: as §1
# p38-beta = p38-beta (Homo sapiens (Human), UniProt Q15759)
# Excerpt: as §1
# PLK4 = PLK4 (Homo sapiens (Human), UniProt O00444)
# Excerpt: as §1
# MEK1 = MEK1 (Homo sapiens (Human), UniProt Q02750)
# Excerpt: as §1
# CDKL3 = CDKL3 (Homo sapiens (Human), UniProt Q8IVW4)
# Excerpt: as §1
# PHKG2 = PHKG2 (Homo sapiens (Human), UniProt P15735)
# Excerpt: as §1
# PDGFRB = PDGFRB (Homo sapiens (Human), UniProt P09619)
# Excerpt: as §1
# HUNK = HUNK (Homo sapiens (Human), UniProt P57058)
# Excerpt: as §1
# HIPK3 = HIPK3 (Homo sapiens (Human), UniProt Q9H422)
# Excerpt: as §1
# CDC2L2 = CDC2L2 (Homo sapiens (Human), UniProt Q9UQ88)
# Excerpt: as §1
# CASK = CASK (Homo sapiens (Human), UniProt O14936)
# Excerpt: as §1
# INSR = INSR (Homo sapiens (Human), UniProt P06213)
# Excerpt: as §1
# [2] = target: JAK1(JH2domain-pseudokinase) (Homo sapiens (Human), UniProt P23458)
# Excerpt: as §1
# CLK4 = CLK4 (Homo sapiens (Human), UniProt Q9HAZ1)
# Excerpt: as §1
# SGK = SGK (Homo sapiens (Human), UniProt O00141)
# Excerpt: as §1
# ERK8 = ERK8 (Homo sapiens (Human), UniProt Q8TD08)
# Excerpt: as §1
# [3] = target: ABL1(T315I)-phosphorylated (Homo sapiens (Human), UniProt P00519, T315I)
# Excerpt: as §1
# CDKL1 = CDKL1 (Homo sapiens (Human), UniProt Q00532)
# Excerpt: as §1
# Chain of MST1R (Q04912 25-1400): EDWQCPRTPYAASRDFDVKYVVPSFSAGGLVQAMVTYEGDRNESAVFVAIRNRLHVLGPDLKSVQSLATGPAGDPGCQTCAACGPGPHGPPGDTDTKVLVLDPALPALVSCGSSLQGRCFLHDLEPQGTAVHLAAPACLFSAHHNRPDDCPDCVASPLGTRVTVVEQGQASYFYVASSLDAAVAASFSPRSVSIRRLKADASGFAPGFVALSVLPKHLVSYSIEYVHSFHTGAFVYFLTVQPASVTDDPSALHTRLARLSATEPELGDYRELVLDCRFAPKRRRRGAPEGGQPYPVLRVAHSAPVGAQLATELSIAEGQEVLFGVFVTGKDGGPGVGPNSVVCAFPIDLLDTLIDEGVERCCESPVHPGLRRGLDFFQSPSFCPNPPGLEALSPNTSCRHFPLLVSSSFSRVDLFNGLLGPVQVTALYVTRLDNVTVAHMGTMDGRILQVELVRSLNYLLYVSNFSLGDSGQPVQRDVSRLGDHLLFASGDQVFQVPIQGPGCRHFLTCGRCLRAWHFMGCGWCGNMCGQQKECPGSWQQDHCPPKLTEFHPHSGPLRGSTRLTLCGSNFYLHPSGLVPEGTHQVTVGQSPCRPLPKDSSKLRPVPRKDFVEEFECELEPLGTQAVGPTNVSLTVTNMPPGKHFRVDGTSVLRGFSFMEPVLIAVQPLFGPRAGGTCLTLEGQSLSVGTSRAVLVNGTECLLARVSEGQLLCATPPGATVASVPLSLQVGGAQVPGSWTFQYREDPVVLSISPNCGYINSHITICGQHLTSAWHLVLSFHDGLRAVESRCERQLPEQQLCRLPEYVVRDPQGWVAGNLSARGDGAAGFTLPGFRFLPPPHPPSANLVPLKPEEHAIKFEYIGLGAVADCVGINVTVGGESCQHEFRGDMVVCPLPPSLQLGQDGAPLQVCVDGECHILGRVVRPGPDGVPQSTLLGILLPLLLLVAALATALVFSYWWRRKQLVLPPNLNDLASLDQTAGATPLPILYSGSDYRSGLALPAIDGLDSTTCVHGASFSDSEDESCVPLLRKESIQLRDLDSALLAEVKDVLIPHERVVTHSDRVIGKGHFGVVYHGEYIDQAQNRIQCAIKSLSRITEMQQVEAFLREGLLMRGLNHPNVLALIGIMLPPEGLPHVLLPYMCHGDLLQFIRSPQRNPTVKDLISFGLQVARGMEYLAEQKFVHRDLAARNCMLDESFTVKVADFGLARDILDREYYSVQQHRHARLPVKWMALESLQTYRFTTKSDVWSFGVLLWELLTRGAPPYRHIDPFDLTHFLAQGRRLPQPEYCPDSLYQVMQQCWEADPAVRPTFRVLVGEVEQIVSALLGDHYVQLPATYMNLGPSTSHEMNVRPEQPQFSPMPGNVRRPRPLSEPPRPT
# Chain of EPHB4 (P54760 16-987): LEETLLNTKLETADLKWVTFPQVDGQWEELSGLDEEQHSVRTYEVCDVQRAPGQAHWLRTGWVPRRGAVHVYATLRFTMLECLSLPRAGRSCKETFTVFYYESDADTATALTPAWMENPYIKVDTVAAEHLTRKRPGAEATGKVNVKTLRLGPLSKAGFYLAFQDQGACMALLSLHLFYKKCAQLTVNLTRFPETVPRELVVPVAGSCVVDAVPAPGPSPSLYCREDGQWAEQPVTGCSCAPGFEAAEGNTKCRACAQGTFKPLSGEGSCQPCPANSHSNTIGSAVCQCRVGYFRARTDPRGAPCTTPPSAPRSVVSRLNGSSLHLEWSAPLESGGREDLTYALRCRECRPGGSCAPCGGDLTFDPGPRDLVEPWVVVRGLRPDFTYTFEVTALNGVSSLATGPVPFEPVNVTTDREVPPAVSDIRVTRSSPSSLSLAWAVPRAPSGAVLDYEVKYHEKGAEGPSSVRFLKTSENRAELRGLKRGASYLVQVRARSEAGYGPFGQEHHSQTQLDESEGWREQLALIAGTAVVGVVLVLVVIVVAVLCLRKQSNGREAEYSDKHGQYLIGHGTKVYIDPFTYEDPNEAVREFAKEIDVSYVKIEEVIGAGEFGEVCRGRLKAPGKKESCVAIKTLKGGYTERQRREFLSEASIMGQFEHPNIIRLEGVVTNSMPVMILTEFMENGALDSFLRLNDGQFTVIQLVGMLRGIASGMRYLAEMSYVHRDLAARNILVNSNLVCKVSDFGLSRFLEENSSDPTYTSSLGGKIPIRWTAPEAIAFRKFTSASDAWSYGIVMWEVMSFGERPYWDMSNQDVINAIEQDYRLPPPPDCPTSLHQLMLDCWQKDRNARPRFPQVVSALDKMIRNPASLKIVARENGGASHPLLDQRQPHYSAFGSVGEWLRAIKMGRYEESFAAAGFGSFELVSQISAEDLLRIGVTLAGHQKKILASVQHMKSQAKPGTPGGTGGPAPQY
# Chain of CDKL3 (Q8IVW4 whole entry): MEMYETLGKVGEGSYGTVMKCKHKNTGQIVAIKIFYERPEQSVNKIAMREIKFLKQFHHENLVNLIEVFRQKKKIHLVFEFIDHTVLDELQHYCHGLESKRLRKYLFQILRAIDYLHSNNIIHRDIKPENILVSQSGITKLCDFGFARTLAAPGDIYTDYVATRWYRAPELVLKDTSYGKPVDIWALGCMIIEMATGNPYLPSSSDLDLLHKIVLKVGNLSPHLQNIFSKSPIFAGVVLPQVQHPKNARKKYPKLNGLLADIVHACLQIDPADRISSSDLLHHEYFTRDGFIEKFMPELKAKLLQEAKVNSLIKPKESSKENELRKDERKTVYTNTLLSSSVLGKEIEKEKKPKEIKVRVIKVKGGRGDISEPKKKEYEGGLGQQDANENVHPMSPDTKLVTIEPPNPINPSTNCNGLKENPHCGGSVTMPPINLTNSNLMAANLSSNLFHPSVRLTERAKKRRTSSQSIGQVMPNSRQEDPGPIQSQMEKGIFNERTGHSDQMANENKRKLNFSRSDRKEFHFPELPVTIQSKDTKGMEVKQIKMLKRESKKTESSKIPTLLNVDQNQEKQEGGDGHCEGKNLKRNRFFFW
# Chain of DYRK1B (Q9Y463 whole entry): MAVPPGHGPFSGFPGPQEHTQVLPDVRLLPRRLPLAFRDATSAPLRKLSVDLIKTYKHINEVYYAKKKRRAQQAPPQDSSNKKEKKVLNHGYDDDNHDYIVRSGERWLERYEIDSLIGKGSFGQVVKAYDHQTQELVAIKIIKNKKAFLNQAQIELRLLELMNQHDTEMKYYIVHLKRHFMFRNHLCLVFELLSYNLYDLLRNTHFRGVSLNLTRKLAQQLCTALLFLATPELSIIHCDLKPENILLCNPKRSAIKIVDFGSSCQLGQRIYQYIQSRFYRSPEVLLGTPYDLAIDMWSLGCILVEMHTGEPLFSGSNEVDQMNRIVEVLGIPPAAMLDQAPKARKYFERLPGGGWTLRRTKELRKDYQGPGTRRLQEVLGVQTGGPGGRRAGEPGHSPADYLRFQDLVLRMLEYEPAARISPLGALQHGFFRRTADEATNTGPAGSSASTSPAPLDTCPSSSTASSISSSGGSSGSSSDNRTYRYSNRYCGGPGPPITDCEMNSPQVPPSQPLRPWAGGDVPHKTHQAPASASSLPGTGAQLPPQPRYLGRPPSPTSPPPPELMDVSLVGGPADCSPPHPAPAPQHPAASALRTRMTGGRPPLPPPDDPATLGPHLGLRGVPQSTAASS
# Chain of PHKG2 (P15735 whole entry): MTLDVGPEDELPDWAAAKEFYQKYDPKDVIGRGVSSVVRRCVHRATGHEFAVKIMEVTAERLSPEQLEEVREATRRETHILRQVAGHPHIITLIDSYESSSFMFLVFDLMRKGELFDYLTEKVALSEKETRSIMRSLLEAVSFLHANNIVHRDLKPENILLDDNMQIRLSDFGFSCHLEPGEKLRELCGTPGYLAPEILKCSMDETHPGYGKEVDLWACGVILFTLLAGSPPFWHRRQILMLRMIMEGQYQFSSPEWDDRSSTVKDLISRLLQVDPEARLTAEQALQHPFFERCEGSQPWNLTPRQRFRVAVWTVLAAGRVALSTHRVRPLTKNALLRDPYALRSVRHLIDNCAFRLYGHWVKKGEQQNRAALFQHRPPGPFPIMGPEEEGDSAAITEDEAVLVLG
# Chain of CLK4 (Q9HAZ1 whole entry): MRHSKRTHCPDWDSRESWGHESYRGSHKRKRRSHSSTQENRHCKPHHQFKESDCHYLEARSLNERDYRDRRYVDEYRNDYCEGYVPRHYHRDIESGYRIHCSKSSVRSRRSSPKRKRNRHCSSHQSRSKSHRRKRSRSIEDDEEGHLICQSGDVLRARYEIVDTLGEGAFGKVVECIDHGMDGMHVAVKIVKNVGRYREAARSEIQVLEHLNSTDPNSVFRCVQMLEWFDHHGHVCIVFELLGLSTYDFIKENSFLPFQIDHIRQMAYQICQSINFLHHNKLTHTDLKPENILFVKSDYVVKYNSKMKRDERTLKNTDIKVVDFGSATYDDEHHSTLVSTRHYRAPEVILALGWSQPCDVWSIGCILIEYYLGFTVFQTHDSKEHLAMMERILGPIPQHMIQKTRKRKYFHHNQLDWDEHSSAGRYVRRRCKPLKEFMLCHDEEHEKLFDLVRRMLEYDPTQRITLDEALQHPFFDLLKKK
# Chain of YES (P07947 whole entry): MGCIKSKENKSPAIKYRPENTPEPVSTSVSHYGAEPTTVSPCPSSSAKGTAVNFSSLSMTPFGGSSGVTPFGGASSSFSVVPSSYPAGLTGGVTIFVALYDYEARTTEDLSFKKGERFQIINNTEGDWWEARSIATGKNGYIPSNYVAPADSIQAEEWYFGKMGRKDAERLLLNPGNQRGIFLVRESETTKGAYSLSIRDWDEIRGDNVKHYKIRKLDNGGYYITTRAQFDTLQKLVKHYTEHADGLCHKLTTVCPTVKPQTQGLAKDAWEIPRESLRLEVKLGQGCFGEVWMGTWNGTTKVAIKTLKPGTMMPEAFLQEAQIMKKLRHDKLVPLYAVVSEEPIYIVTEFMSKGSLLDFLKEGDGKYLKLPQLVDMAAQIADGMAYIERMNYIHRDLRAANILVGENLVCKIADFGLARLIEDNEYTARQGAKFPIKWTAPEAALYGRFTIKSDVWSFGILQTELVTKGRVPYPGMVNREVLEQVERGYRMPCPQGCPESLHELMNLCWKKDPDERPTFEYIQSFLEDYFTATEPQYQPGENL
compound,measurement,setting,value
CCN1CCN(Cc2ccc(Nc3nc4ccc(Oc5ccnc(NC(C)=O)c5)cc4n3C)cc2C(F)(F)F)CC1 [Compound I-2],remaining binding at 1 µM,CAMK2G,100%
same,remaining binding at 1 µM,PFCDPK1(P.falciparum),77%
same,remaining binding at 1 µM,EPHA6,100%
same,remaining binding at 1 µM,PCTK3,78%
same,remaining binding at 1 µM,AMPK-alpha2,100%
same,remaining binding at 1 µM,FES,100%
same,remaining binding at 1 µM,CSF1R,0.1%
same,remaining binding at 1 µM,MST1R,80%
same,remaining binding at 1 µM,DYRK1A,92%
same,remaining binding at 1 µM,RET,0%
same,remaining binding at 1 µM,[1],37%
same,remaining binding at 1 µM,ULK2,91%
same,remaining binding at 1 µM,EPHB4,100%
same,remaining binding at 1 µM,DYRK1B,71%
same,remaining binding at 1 µM,NIM1,97%
same,remaining binding at 1 µM,CAMK4,98%
same,remaining binding at 1 µM,BRK,100%
same,remaining binding at 1 µM,EPHA4,100%
same,remaining binding at 1 µM,FGR,100%
same,remaining binding at 1 µM,HPK1,69%
same,remaining binding at 1 µM,MET(Y1235D),71%
same,remaining binding at 1 µM,PCTK1,84%
same,remaining binding at 1 µM,YES,82%
same,remaining binding at 1 µM,VEGFR2,0.85%
same,remaining binding at 1 µM,p38-beta,100%
same,remaining binding at 1 µM,PLK4,92%
same,remaining binding at 1 µM,MEK1,94%
same,remaining binding at 1 µM,CDKL3,7.6%
same,remaining binding at 1 µM,PHKG2,85%
same,remaining binding at 1 µM,PDGFRB,0%
same,remaining binding at 1 µM,HUNK,65%
same,remaining binding at 1 µM,HIPK3,85%
same,remaining binding at 1 µM,CDC2L2,0.1%
same,remaining binding at 1 µM,CASK,78%
same,remaining binding at 1 µM,INSR,20%
same,remaining binding at 1 µM,[2],97%
same,remaining binding at 1 µM,CLK4,100%
same,remaining binding at 1 µM,SGK,85%
same,remaining binding at 1 µM,ERK8,79%
same,remaining binding at 1 µM,[3],62%
same,remaining binding at 1 µM,CDKL1,84%
"CCN1CCN(Cc2ccc(Nc3nc4ccc(Oc5ccnc(NC(C)=O)c5)c(C)c4n3C)cc2C(F)(F)F)CC1 [Compound I-6, N-(4-(2-(4-((4-ethylpiperazin-1-yl)methyl)-3-(trifluoromethyl)phenylamino)-1,7-dimethyl-1H-benzo[d]imidazol-6-yloxy)pyridin-2-yl)acetamide]",remaining binding at 1 µM,CAMK2G,100%
same,remaining binding at 1 µM,PFCDPK1(P.falciparum),65%
same,remaining binding at 1 µM,EPHA6,96%
same,remaining binding at 1 µM,PCTK3,76%
same,remaining binding at 1 µM,AMPK-alpha2,92%
same,remaining binding at 1 µM,FES,82%
same,remaining binding at 1 µM,CSF1R,0.35%
same,remaining binding at 1 µM,MST1R,83%
same,remaining binding at 1 µM,DYRK1A,100%
same,remaining binding at 1 µM,RET,0.1%
same,remaining binding at 1 µM,[1],27%
same,remaining binding at 1 µM,ULK2,100%
same,remaining binding at 1 µM,EPHB4,90%
same,remaining binding at 1 µM,DYRK1B,50%
same,remaining binding at 1 µM,NIM1,93%
same,remaining binding at 1 µM,CAMK4,100%
same,remaining binding at 1 µM,BRK,89%
same,remaining binding at 1 µM,EPHA4,91%
same,remaining binding at 1 µM,FGR,51%
same,remaining binding at 1 µM,HPK1,56%
same,remaining binding at 1 µM,MET(Y1235D),44%
same,remaining binding at 1 µM,PCTK1,68%
same,remaining binding at 1 µM,YES,84%
same,remaining binding at 1 µM,VEGFR2,1.7%
same,remaining binding at 1 µM,p38-beta,94%
same,remaining binding at 1 µM,PLK4,100%
same,remaining binding at 1 µM,MEK1,87%
same,remaining binding at 1 µM,CDKL3,0.4%
same,remaining binding at 1 µM,PHKG2,100%
same,remaining binding at 1 µM,PDGFRB,0.05%
same,remaining binding at 1 µM,HUNK,91%
same,remaining binding at 1 µM,HIPK3,76%
same,remaining binding at 1 µM,CDC2L2,0.2%
same,remaining binding at 1 µM,CASK,87%
same,remaining binding at 1 µM,INSR,12%
same,remaining binding at 1 µM,[2],82%
same,remaining binding at 1 µM,CLK4,81%
same,remaining binding at 1 µM,SGK,96%
same,remaining binding at 1 µM,ERK8,75%
same,remaining binding at 1 µM,[3],87%
same,remaining binding at 1 µM,CDKL1,87%
